Laboratory results: paper PMC8911181, “A Novel CDK4/6 and PARP Dual Inhibitor ZC-22 Effectively Suppresses Tumor Growth and Improves the Response to Cisplatin Treatment in Breast and Ovarian Cancer” (International Journal of Molecular Sciences, 2022)

Columns and labels:
[1] = system: γH2A.X; test: Immunofluorescence staining of γH2A.X foci; format: cell-based, human; details: MDA-MB-231 (2 μM) and OVCAR5 (0.5 μM) cells; 24 h
Protocol: Immunofluorescence-staining of γH2A.X was performed as described before. Briefly, cells were seeded on cover glasses in 24-well plates, cultured for 24–48 h, and then treated with cisplatin alone or together with Olaparib or ZC-22 for 24 h. After washing with PBS, cells were fixed by 4% PFA, permeated with 0.5% Triton-X100 in PBS, washed thrice with 0.1% PBS-Tween (PBST), blocked with 3% BSA in PBST, and then incubated with anti-γH2A.X antibody overnight at 4 °C. […] At least 150 cells in three fields were counted for each repeat.
(§1) Figure 3 ZC-22 inhibits CDK4/6 and PARP to induce cell-cycle arrest, DNA damage, and apoptosis in breast and ovarian cancer cells. […] The levels of CDK4/6 and p-Rb/Rb were determined by Western blot (A). Cell-cycle distribution was analyzed by flow cytometry (B). […] (D,E) Representative pictures (left) and quantification of percentage (right) of γH2A.X-positive cells in MDA-MB-231 cells treated with 2 μM OLA or ZC-22 for 24 h (D), or OVCAR5 cells treated with 0.5 μM OLA or ZC-22 for 24 h (E). Values are means ± SD, n = 3. * p < 0.05, ** p < 0.01, and *** p < 0.001 for comparisons with the DMSO-treated group. p value was calculated using an unpaired t-test. […] Values are means ± SD, n = 3. * p < 0.05, ** p < 0.01, and *** p < 0.001 vs. the DMSO-treated group. p value was calculated using an unpaired t-test. […]

[2] = system: PARP; test: Western blot of PAR, a direct product of PARP; format: cell-based, human; details: MDA-MB-231 (2 μM) and OVCAR5 (0.5 μM) cells, 48 h
Protocol: Cells were washed with PBS, collected with scraper, and then lysed in RIPA buffer containing 1× protease and phosphatase inhibitors for 30 min on ice. The supernatants were collected by centrifugation at full speed for 10 min at 4 °C and subjected to SDS-PAGE followed by immunoblotting as described before. Signals were detected using enhanced chemiluminescence (Millipore, Burlington, MA, USA) and captured by the G: BOX Chemi XRQ gel doc System (Syngene, Cambridge, UK).
as §1, with “cells. (A,B) MDA-MB-231 cells were treated with 2 μM LY2835219 (LY-2) or ZC-22.” for “cells.”

Cc1nc2c(F)cc(-c3nc(Nc4ccc(N5CCN(C(=O)c6cc(Cc7n[nH]c(=O)c8ccccc78)ccc6F)CC5)cn4)ncc3F)cc2n1C(C)C [ZC-22, 4-(4-fluoro-3-(4-(6-((5-fluoro-4-(4-fluoro-1-isopropyl-2-methyl-1H-benzo[d]imidazole-6-yl)pyrimidin-2-yl)amino)pyridin-3-yl)piperazine-1-carbonyl)benzyl)phthalazin-1(2H)-one]
formation of γH2A.X foci [1]: notably induced formation of γH2A.X foci | PAR expression [2]: effectively inhibited PAR expression
